Assay results published in PubChem BioAssay AID2335 (Sanford-Burnham Center for Chemical Genomics, 2010).
The source made the active and inactive calls. No rule for the calls is given here.

Tested on: HEK293 cytotoxicity, cell viability
Assay: cytotoxicity toward HEK293 cells, SAR follow-up, cell-based, revised (AID 2335)

Cn1nccc1C(=O)NC1CCCc2c1cnn2-c1ccccc1F (stereo unspecified)
IC50: > 20 µM (inactive)
